Literature values, collected in patent US4533546A, “Antiinflammatory analgesic gelled ointments” (Lederle (Japan), Ltd., priority 1983, dated 1985).

What was measured:
digestive organs = conditions: oral, background statement in words
[1] = in water and various pharmaceutically acceptable solvents; in words

Row | Compound | side-effects (digestive organs) | solubility [1]
1 | CC(C)Cc1ccc(CC(=O)O)cc1 [ibufenac] | side-effects on the digestive organs | 
2 | O=C(O)Cc1ccc(-c2ccccc2)cc1 [4-biphenylylacetic acid] | side-effects on the digestive organs | insoluble or only sparingly soluble in water and various pharmaceutically acceptable solvents
3 | CC(C)Cc1ccc(C(C)C(=O)O)cc1 (centres unmarked) [ibuprofen] | side-effects on the digestive organs | 
4 | COc1ccc2c(c1)c(CC(=O)O)c(C)n2C(=O)c1ccc(Cl)cc1 [indomethacin] | side-effects on the digestive organs | 
